Measured values published in patent US20260055065A1, “PYRIDAZINONE COMPOUNDS WHICH MODULATE MUTANT PROTEINS FOR TREATING RESPIRATORY DISEASES” (The Hospital for Sick Children, priority 2022, published 2026).

How the values were obtained:
Assay type in all cases: cell-based
[1] = test system: primary differentiated human bronchial epithelial cultures; assay: Bead tracking assay of mucociliary movement, primary bronchial epithelial cultures exposed to cigarette smoke extract
Description: Compound 11 was tested in an in-vitro model of COPD. In this model, primary differentiated human bronchial epithelial cultures were exposed to cigarette smoke extract (4,5). Exposure to cigarette smoke extract (CSE) led to mucostasis and slowed mucociliary movement (FIG. 1(A) and (B)). […] Changes in mucociliary movement were determined as in our previous publication (7), i.e., by tracking the speed of fluorescent beads added to the surface of the airway cultures. The relative rescue effect of Compound 11 compared favourably relative to the competitor, the FDA approved CFTR potentiator marketed as Ivacaftor (VX-770).
Mature bronchial epithelial cultures, seeded on 24-well transwell inserts, derived from non-smoker donors of variable ages were received from the University of Iowa and cultured at air-liquid interface (ALI) using UltraG medium. A total of 6 inserts per donor were cultured, and all inserts from a single donor were selected to receive chronic drug and toxin treatment. Ahead of chronic treatment, cultures were subject to mucomist to reduce the volume and viscosity of the mucous layer ahead of imaging. Cultures were first washed twice with 200 uL HBSS (Wisent) applied apically to the transwell, each wash for 10 minutes at 37 degrees and 5% CO2. Cells were then incubated with 10 μM N-acetyl-cysteine (source?) dissolved in HBSS (Wisent) for 30 minutes, followed by a final HBSS wash as described previously. The toxin treatment consisted of either cigarette smoke extract (CSE) prepared in 100% DMSO (University of Alabama at Birmingham), dissolved at a concentration of 2% (v/v) in UltraG medium, with an equivalent concentration of DMSO alone serving as a control. The chronic drug treatment was co-applied with the toxin treatment, which included either VX-770 (Vertex) or SK-POT, aka Compound 11 (both prepared in 100% DMSO) dissolved in UltraG medium at a final concentration of 1 μm. There were a total of 6 chronic treatments, with each of the 6 inserts per donor receiving a different chronic treatment. Bronchial epithelia were incubated with the chronic treatment, applied apically, for 24 hours at 37 degrees C. and 5% CO2. After 24 hours, green fluorescent microspheres (brand?) dissolved in HBSS at a concentration of 0.05% (v/v) were applied apically; cultures were incubated with the microspheres for 45 minutes. The toxin and potentiator treatments were carried forth into the microsphere solution.
Inserts were then imaged at room temperature by epifluorescence microscopy (Zeiss or Olympus). The basic replicate of the assay consists of a 5-second video captured in the green channel and 40-60 frames per second; Z-position was adjusted ahead of each video to ensure beads in the airway surface liquid stratum immediately above the cilia were being captured. 5 videos were captured per insert/conditions, representing the centre and 4 corners of the insert. 2 sets of 5 videos were captured per insert/condition: one at baseline, and one 20 minutes following CFTR stimulation by forskolin at a concentration of 10 μM. Inserts were incubated at room temperature after forskolin addition.
Videos were captured using Volocity software and exported as one TIF file per frame. Frames were then re-compiled into complete videos using Arivis 4D software. Using an algorithm as previously described in Wu et al. 2017, microspheres were highlighted by adjusting two parameters: fluorescence intensity and diameter. […]

[2] = target: Wt-CFTR (Homo sapiens, UniProt P13569); assay: Calu-3 CSE experiments, FLiPR assay of CFTR channel activity; parameters: this airway epithelial cell line endogenously expresses this channel; endogenous in cells; host or cells: Calu-3
Chain of Wt-CFTR (P13569 whole entry): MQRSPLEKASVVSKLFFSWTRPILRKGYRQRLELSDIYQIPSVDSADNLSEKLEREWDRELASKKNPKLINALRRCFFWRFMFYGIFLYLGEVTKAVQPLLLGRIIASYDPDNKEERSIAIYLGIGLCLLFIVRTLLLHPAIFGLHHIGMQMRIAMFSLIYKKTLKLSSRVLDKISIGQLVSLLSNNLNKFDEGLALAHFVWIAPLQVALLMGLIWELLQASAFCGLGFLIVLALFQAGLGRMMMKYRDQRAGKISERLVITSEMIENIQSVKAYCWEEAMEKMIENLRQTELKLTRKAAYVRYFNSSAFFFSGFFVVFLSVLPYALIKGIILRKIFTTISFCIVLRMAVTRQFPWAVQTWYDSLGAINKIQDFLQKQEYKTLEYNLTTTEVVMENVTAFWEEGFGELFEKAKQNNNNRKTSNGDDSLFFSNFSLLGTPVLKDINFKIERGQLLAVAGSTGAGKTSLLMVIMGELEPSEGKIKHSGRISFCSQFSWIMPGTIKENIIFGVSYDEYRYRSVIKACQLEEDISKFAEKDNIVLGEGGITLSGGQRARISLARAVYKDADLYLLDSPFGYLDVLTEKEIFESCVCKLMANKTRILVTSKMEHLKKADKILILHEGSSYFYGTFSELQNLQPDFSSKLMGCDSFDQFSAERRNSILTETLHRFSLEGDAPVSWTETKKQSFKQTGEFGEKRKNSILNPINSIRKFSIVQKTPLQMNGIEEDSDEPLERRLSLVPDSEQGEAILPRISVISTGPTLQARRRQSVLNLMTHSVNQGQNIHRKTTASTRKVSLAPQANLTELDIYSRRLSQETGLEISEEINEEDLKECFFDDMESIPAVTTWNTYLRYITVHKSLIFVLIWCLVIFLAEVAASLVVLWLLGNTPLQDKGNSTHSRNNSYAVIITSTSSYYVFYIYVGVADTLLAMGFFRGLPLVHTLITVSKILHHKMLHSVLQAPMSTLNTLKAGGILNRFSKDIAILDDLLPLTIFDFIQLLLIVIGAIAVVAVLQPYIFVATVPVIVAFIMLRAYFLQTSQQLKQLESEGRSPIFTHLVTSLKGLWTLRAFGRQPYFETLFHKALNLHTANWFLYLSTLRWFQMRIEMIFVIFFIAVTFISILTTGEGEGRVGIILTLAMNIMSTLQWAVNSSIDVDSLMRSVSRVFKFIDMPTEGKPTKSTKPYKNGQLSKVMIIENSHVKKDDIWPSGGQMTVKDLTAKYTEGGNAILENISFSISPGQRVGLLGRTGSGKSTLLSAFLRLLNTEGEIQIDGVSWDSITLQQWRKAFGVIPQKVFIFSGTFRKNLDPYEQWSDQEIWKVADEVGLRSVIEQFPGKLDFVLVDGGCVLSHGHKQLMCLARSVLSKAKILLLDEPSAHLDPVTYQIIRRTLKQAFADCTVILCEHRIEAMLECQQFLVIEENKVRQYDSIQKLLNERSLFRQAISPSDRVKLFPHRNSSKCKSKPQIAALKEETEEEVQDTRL
Description: Addition of CFTR-inhibitor indicated with grey arrow. Superimposed, we show the effect of acute co-application of VX-770 (open squares) or SK-POT (open triangles) with forskolin. […] Only SK-POT rescued CFTR channel function in the presence of cigarette smoke extract.
Calu-3 cells were cultured using EMEM (Wisent) supplemented with FBS at 20% (v/v) and 1× Penicillin/Streptomycin (Wisent). Calu-3 cells were seeded on clear-bottom, black-walled 96 well plates (Costar, Corning) at a density of 10,000 cells/well and cultured for 2 days post-confluence. Cells then received the chronic treatment of toxin and potentiator. The toxin treatment consisted of either cigarette smoke extract (CSE) prepared in 100% DMSO (University of Alabama at Birmingham), dissolved at a concentration of 2% (v/v) in Calu-3 medium, with an equivalent concentration of DMSO alone serving as the toxin control. The chronic drug treatment was co-applied with the toxin, which included either VX-770 or Compound 11 (both prepared in 100% DMSO) dissolved in Calu-3 medium at a final concentration of 1 μm. VX-770 (Vertex) and Compound 11 solutions were prepared from 1 mM stocks. The control for the drug treatment was the vehicle, DMSO at an equivalent volume. Combining the two toxin treatments and three drug treatments, a total of six treatments were applied chronically to 4 wells per condition, for a total of 24 wells receiving chronic treatment.
Cells were cultured for an additional 24 hours after chronic treatment application, after which cells were incubated with FLiPR assay buffer. The FLiPR assay buffer consisted of blue FLiPR dye (Molecular Devices) dissolved at a concentration of 0.5 mg/mL in chloride-free buffer (150 mM NMDG, 150 mM gluconolactone, 3 mM potassium gluconate, 300 mOsm and pH 7.38). Buffer was incubated with cells at 37 degrees and 5% CO2 for 35 minutes. CFTR function was assessed by measuring changes in fluorescence activity after acute CFTR channel activation by addition of cAMP agonist forskolin dissolved in chloride-free buffer to a final concentration 1 μm, using the SpectraMax i3x multimodal plate reader. Fluorescence readings (excitation 530 nm; emission 560 nm) for each well were taken at 30-second intervals for 5 minutes (baseline) or 10 minutes (activation). CFTR activity was then terminated by addition of CFTR-inhibitor 172 dissolved in chloride-free buffer to a concentration of 10 μm, to further verify the specificity of the response to CFTR activity. Fluorescence changes were recorded at 30-second intervals for another 10 minutes. In analysis, all fluorescence values were normalized per well to the final reading prior to the addition of forskolin and expressed as a percentage of this reading.

[3] = target: T1, F508del-CFTR (Homo sapiens, UniProt P13569, DEL508-508); assay: Dose response, potentiation of forskolin-activated F508del-CFTR chloride channel activity in CFBE41o- cells (fluorescence membrane potential assay); conditions: low temperature (27 degrees Celsius) correction, read-out: potency in potentiating cyclic AMP dependent F508del-CFTR chloride channel activity
T1 construct: F508del-CFTR was endogenously expressed in CFBE41o^− cells; endogenous in cells; host or cells: CFBE41o-
T1 sequence (P13569 with tags, fused parts or gaps DEL508-508): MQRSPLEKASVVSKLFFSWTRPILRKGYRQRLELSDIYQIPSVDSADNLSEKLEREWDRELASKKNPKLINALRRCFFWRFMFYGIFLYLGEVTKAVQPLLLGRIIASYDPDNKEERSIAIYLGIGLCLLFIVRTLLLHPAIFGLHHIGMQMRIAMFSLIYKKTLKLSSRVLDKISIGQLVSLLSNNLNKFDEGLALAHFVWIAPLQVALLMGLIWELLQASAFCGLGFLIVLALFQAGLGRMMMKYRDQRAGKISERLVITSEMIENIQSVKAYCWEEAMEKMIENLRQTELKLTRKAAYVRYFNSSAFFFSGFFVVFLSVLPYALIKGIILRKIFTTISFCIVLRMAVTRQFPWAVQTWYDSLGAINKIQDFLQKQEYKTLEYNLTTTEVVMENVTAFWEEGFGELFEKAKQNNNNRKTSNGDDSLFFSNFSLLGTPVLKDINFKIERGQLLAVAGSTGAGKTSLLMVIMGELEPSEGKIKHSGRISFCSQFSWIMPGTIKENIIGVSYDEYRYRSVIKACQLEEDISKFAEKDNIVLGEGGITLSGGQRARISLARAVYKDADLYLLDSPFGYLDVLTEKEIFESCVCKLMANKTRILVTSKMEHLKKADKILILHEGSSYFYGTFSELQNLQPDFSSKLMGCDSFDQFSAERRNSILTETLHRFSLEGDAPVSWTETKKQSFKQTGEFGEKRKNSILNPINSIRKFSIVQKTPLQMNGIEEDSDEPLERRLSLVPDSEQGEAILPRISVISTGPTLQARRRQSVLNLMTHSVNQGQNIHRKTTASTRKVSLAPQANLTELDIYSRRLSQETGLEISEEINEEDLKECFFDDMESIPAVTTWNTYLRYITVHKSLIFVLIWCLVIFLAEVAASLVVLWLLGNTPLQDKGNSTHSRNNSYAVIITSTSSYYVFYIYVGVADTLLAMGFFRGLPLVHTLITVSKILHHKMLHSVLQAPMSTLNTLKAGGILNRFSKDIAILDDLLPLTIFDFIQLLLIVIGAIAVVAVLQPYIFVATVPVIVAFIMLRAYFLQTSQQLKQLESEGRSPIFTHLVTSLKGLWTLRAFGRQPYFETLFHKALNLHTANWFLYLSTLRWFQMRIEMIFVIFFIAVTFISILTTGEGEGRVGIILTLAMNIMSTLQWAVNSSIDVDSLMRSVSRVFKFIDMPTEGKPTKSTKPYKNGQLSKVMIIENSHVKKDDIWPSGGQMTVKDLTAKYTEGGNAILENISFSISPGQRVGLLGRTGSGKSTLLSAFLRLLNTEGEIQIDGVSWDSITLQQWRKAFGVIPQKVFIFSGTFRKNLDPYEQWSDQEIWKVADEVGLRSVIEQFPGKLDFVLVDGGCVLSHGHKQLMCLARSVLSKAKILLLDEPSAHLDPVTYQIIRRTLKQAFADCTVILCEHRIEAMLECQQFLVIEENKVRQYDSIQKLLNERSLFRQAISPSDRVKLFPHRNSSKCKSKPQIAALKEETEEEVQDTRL
Description: In these studies, F508del-CFTR was endogenously expressed in CFBE41o^− cells and it's trafficking defect corrected by low temperature (27 degrees Celsius) incubation. The fold increase in cyclic AMP dependent F508del-CFTR mediated chloride channel activity induced by potentiator treatment was determined using the fluorescence-based, membrane potential difference assay previously described.

[4] = target: T2, wild-type human CFTR (Homo sapiens, UniProt P13569); assay: Cell-attached patch clamp of CFTR channel potentiation in HEK-293 cells; conditions: one active channel with forskolin alone
T2 construct: host or cells: HEK-293
T2 sequence (P13569 whole entry): as the sequence (P13569 whole entry) above
Description: HEK-293 cells stably expressing wild-type human CFTR in patch clamp studies of single channel activity were used. […] CFTR Cl^− channels were recorded in cell-attached membrane patches using an Axopatch 200A patch clamp amplifier and pCLAMP software (both from Molecular Devices, Sunnyvale, CA). The pipette and bath (extracellular) solutions contained 140 mm N-methyl-d-glucamine, 140 mm aspartic acid, 5 mm CaCl2, 2 mm MgSO4, and 10 mm TES, adjusted to pH 7.3 with Tris ([Cl^−]: 10 mM). The bath was maintained at room temperature.
In order to activate Wt-CFTR channels, 10 uM forskolin was added to the bath. […] To determine channel number, we used the maximum number of simultaneous channel openings observed during the experimental procedure. Single channel recordings were filtered and digitized data as described previously. To measure single-channel current amplitude, Gaussian distributions were fitted to current amplitude histograms. To measure Po, lists of open and closed times were created using a half-amplitude crossing criterion for event detection, and dwell time histograms were constructed and fitted. For the purpose of illustration, single-channel records were filtered at 500 Hz.

Compound | mucostasis / bead velocity in CSE-treated cultures ([1]; CSE 2%, compound 1 μM for 24 hours, forskolin 10 μM) | bead velocity under control conditions ([1]; no CSE, compound added with vehicle for 24 hours) | forskolin-activated CFTR channel activity after CSE exposure ([2]; Calu-3, CSE 2%, compounds 1 uM) | EC90 ([2]; Calu-3, CFTR channel potentiation, read-out: approximate EC90) [µM] | EC50 [3] [µM] | number of active channels [4]
CC(C)(C)c1cc(C(C)(C)C)c(NC(=O)c2c[nH]c3ccccc3c2=O)cc1O [VX-770, reference compound] | a significant increase in the forskolin induced response in CSE-treated cultures after VX-770 addition was not observed | Neither VX-770 nor Compound 11 had any impact on bead velocity | only (SK-POT) treatment led to a significant increase | ~1 | 0.032 | –
CFTRinh-172 | – | – | – | – | – | significant decrease in the number of active channels
